Literature values as cited in patent US20210386367A1, “DEVICES AND SYSTEMS FOR GASTROINTESTINAL MICROBIOME DETECTION AND MANIPULATION” (Progenity, Inc., priority 2018, published 2021).
≈ marks a conversion by molar mass, not a printed value. Read-outs that look alike come from different tables or passages of the source.

Key:
Conditions in all cases: cited from earlier work
[1] = system: Fusobacterium nucleatum
[2] = system: Escherichia coli
[3] = system: Streptococcus agalactiae
[4] = system: Clostridium spp.
[5] = system: Bacteroides spp.
[6] = system: Fusobacterium spp
[7] = system: Bacteroides fragilis
[8] = system: Bacteroides thetaiotaomicron
[9] = system: Bacteroides fragilis; remark: listed apart in the source
[10] = system: Citrobacter spp.
[11] = system: Klebsiella pneumoniae
[12] = system: Veillonella
[13] = system: Haemophilus influenzae
[14] = system: Proteus mirabilis
[15] = system: E. coli ATCC 35218 (TEM-1 β-lactamase producer)
[16] = system: Escherichia coli; remark: listed apart in the source
[17] = system: Staphylococcus aureus
[18] = system: Fusobacterium spp; remark: listed apart in the source
[19] = system: Bacteroides vulgatus
[20] = system: Citrobacter spp.; remark: listed apart in the source
[21] = system: Bacteroides fragilis; remark: listed apart in the source
[22] = system: Staphylococcus aureus; remark: listed apart in the source
[23] = system: Staphylococci
[24] = system: Klebsiella spp.
[25] = system: Bacteroides ovatus
[26] = system: Enterococcus spp.
[27] = system: Prevotella spp.
[28] = system: Escherichia coli; remark: listed apart in the source
[29] = system: Enterobacteriaceae

CO/N=C(\C(=O)N[C@@H]1C(=O)N2C(C(=O)O)=C(CSc3nc(=O)c(=O)[nH]n3C)CS[C@H]12)c1csc(N)n1 [ceftriaxone]
% S [1]: 100%
MIC50 [1]: 0.125 µg/mL (≈ 0.225 µM)
MIC90 [1]: 0.5 µg/mL (≈ 0.902 µM)
MIC range [1]: 0.015 to 1 µg/mL
% S [2]: 87%
MIC50 [2]: ≤0.25 µg/mL
MIC90 [2]: 32 µg/mL (≈ 57.7 µM)
MIC50 [3]: 0.025 µg/mL (≈ 0.0451 µM)
MIC90 [3]: 0.1 µg/mL (≈ 0.18 µM)
MIC range [3]: 0.012 to 0.1 µg/mL
% S [4]: 75%
MIC50 [4]: 2 µg/mL (≈ 3.61 µM)
MIC50 [5]: >128 µg/mL
MIC90 [5]: >128 µg/mL
% S [6]: 87%
MIC50 [6]: 0.5 µg/mL (≈ 0.902 µM)
MIC90 [6]: 32 µg/mL (≈ 57.7 µM)
% S [7]: 15%
MIC50 [7]: 32 µg/mL (≈ 57.7 µM)
MIC90 [7]: >32 µg/mL
% S [8]: 2%
MIC50 [8]: 32 µg/mL (≈ 57.7 µM)
MIC90 [8]: >32 µg/mL

C[C@@H](O)[C@H]1C(=O)N2C(C(=O)O)=C(S[C@@H]3CN[C@H](C(=O)N(C)C)C3)[C@H](C)[C@H]12 [meropenem]
% S [9]: 94.5%
MIC50 [9]: 0.25 µg/mL (≈ 0.652 µM)
MIC90 [9]: 4 µg/mL (≈ 10.4 µM)
% S [10]: 86.4%
MIC50 [10]: ≤0.06 µg/mL
MIC90 [10]: 4 µg/mL (≈ 10.4 µM)
% S [11]: 38.3%
MIC50 [11]: 8 µg/mL (≈ 20.9 µM)
MIC90 [11]: 64 µg/mL (≈ 167 µM)
% S [12]: 100%
MIC50 [12]: ≤0.03 µg/mL
MIC90 [12]: ≤0.03 µg/mL
MIC range [12]: ≤0.03 to 0.25 µg/mL
MIC50 [13]: ≤0.125 µg/mL
MIC90 [13]: 0.5 µg/mL (≈ 1.3 µM)
% S [14]: 95.5%
MIC50 [14]: 0.12 µg/mL (≈ 0.313 µM)
MIC90 [14]: 0.25 µg/mL (≈ 0.652 µM)
MIC range [14]: 0.12 to 16 µg/mL
CLSI QC range (MIC) [15]: (0.008-0.06) μg/mL
% S [16]: 83.1%
MIC50 [16]: ≤0.06 µg/mL
MIC90 [16]: 32 µg/mL (≈ 83.4 µM)
MIC50 [17]: ≤0.12 µg/mL
MIC90 [17]: 4 µg/mL (≈ 10.4 µM)
% S [18]: 100%
MIC50 [18]: 0.125 µg/mL (≈ 0.326 µM)
MIC90 [18]: 0.25 µg/mL (≈ 0.652 µM)
MIC range [18]: ≤0.03 to 0.5 µg/mL
% S [19]: 100%
MIC50 [19]: 0.5 µg/mL (≈ 1.3 µM)
MIC90 [19]: 1 µg/mL (≈ 2.61 µM)
MIC range [19]: 0.125 to 1 µg/mL
% S [20]: 99%
MIC50 [20]: 0.03 µg/mL (≈ 0.0782 µM)
MIC90 [20]: 0.06 µg/mL (≈ 0.156 µM)

CO[C@H]1/C=C/O[C@@]2(C)Oc3c(C)c(O)c4c(O)c(c5c(nc6cc(C)ccn65)c4c3C2=O)NC(=O)/C(C)=C\C=C\[C@H](C)[C@H](O)[C@@H](C)[C@@H](O)[C@@H](C)[C@H](OC(C)=O)[C@@H]1C [rifaximin]
MIC50 [21]: 0.25 µg/mL (≈ 0.318 µM)
MIC90 [21]: >1024 µg/mL
% S [22]: 100%
MIC50 [22]: ≤0.25 µg/mL
MIC90 [22]: ≤0.25 µg/mL
MIC range [22]: ≤0.25 µg/mL
MIC50 [23]: ≤0.06 µg/mL
MIC90 [23]: 64 µg/mL (≈ 81.4 µM)
MIC range [23]: ≤0.06 to 64 µg/mL
% S [24]: 43.6%
MIC50 [24]: 64 µg/mL (≈ 81.4 µM)
MIC90 [24]: 128 µg/mL (≈ 163 µM)
MIC range [24]: 8 to 128 µg/mL
MIC50 [25]: 1 µg/mL (≈ 1.27 µM)
MIC90 [25]: 1 µg/mL (≈ 1.27 µM)
MIC50 [26]: 4 µg/mL (≈ 5.09 µM)
MIC90 [26]: 32 µg/mL (≈ 40.7 µM)
MIC range [26]: ≤0.06 to 32 µg/mL
MIC50 [27]: 0.25 µg/mL (≈ 0.318 µM)
MIC90 [27]: 0.5 µg/mL (≈ 0.636 µM)
MIC range [27]: 0.25 to 1 µg/mL
% S [28]: 85.4%
MIC50 [28]: 16 µg/mL (≈ 20.4 µM)
MIC90 [28]: 64 µg/mL (≈ 81.4 µM)
MIC range [28]: 4 to 64 µg/mL
MIC50 [29]: 32 µg/mL (≈ 40.7 µM)
MIC90 [29]: >128 µg/mL
